In patent US20260078103A1, “ISOQUINOLONES AS PI3K INHIBITORS” (OnKure, Inc., priority 2022, published 2026):
Where two headings read alike, the source gives them in different places.

Key:
Type in all cases: cell-based
[1] = tested on: phosphorylation of AKT (pAKT) in T47D cells expressing mutant PI3Ka (H1047R); assay: In vitro cell pAKT (Ser473) HTRF, T47D cells; details: cellular pAKT, T47D cells, mutant PI3Ka (H1047R), 6 hours, read-out: Avg T-47D IC50
Summary of the method: (§1)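 pAKT (Ser473) was quantified by HTRF in lysates from cells exposed 6 h at 37 °C to 10-point compound series, with T47D in insulin-supplemented RPMI/10% FBS and SKBR3 in McCoy's 5a/10% FBS. Controls: 0.1% DMSO (high) and 10 uM alpelisib (low). IC50 from sigmoidal curve fitting.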

[2] = tested on: phosphorylation of AKT (pAKT) in SKBR3 cells express WT PI3Ka; assay: In vitro cell pAKT (Ser473) HTRF, SKBR3 cells; details: cellular pAKT
Summary of the method: as §1

[3] = tested on: T47D cells expressing mutant PI3Ka (H1047R); assay: In vitro cell proliferation, T47D cells (CellTiter-Glo); details: inhibition of proliferation, read-out: Avg T-47D EC50
Summary of the method: (§2)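 Proliferation was read by CellTiter-Glo luminescence after 72 h of exposure to 10-point compound dilutions at 37 °C and 5% CO2. T47D (RPMI, 10% FBS, insulin 0.2 units/mL) and SKBR3 (McCoys 5a, 10% FBS) cells were seeded at 1,500 cells/well. EC50 was fitted from inhibition relative to DMSO and 10 uM Alpelisib.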

[4] = tested on: SKBR3 cells express WT PI3Ka; assay: In vitro cell proliferation, SKBR3 cells (CellTiter-Glo); details: inhibition of proliferation
Summary of the method: as §2

IC50 ([1]; Homo sapiens, T47D, 6 h) | IC50 ([2]; Homo sapiens, SK-BR-3, 6 h) | EC50 ([3]; Homo sapiens, T47D, 72 h) | EC50 ([4]; Homo sapiens, SK-BR-3, 72 h) | IC50 [1] | IC50 ([2]; 6 hours) | EC50 ([3]; 72 hours) | EC50 ([4]; 72 hours) | SMILES
0.001 to 0.5 µM | > 15 µM | 0.001 to 0.5 µM | > 15 µM |  |  |  |  | Cc1cc([C@@H](C)Nc2ccccc2C(=O)O)c2cc(C3C[C@H]3C(C)C)n(C)c(=O)c2c1 (stereo partly drawn) [Example 306]
0.001 to 0.5 µM | > 15 µM | 0.001 to 0.5 µM | 2 to 15 µM |  |  |  |  | C[C@@H](Nc1ccccc1C(=O)O)c1cc(F)cc2c(=O)n(C)c(-c3cnc(C4(CC(F)(F)F)CC4)nc3)cc12 [Example 579]
 |  |  |  | 0.001 to 0.5 µM | > 15 µM | 0.001 to 0.5 µM | > 15 µM | C[C@@H](Nc1cccc(F)c1C(=O)O)c1cc(F)cc2c(=O)n(C)c(C3C[C@@H]3C3CC3)cc12 (single isomer, unassigned) [Example 426]
0.001 to 0.5 µM | > 15 µM | 0.001 to 0.5 µM | 2 to 15 µM |  |  |  |  | Cc1cc([C@@H](C)Nc2ccccc2C(=O)O)c2cc(-c3cnc(COC(F)(F)F)c(F)c3)n(C)c(=O)c2c1 [Example 282]
 |  |  |  | 0.5 to 2 µM | > 15 µM | 0.5 to 2 µM | > 15 µM | Cc1ccc(C2CN(c3cc4c([C@@H](C)Nc5cccc(F)c5C(=O)O)cc(F)cc4c(=O)n3C)C2)cn1 [Example 409]
0.001 to 0.5 µM | > 15 µM | 0.001 to 0.5 µM | > 15 µM |  |  |  |  | Cc1cc([C@@H](C)Nc2ccccc2C(=O)O)c2cc(OCc3ccc(C)nc3)n(C)c(=O)c2c1 [Example 334]
0.001 to 0.5 µM | > 15 µM | 0.5 to 2 µM | > 15 µM |  |  |  |  | Cc1cc([C@@H](C)Nc2ccccc2C(=O)O)c2cc(OC3CC3)n(C)c(=O)c2c1 [Example 339]
0.5 to 2 µM | > 15 µM | 0.5 to 2 µM | > 15 µM |  |  |  |  | Cc1cc(C(C)Nc2ccccc2C(=O)O)c2cc(N3CCN(C)CC3)n(C)c(=O)c2c1 (stereo not drawn) [Example 59]
0.001 to 0.5 µM | 2 to 15 µM | 0.001 to 0.5 µM | > 15 µM |  |  |  |  | Cc1cc([C@@H](C)Nc2ccccc2C(=O)O)c2cc(N3CCN(c4ccccc4F)CC3)n(C)c(=O)c2c1 [Example 221]
0.5 to 2 µM | > 15 µM | 0.5 to 2 µM | > 15 µM |  |  |  |  | C[C@@H](Nc1ccccc1C(=O)O)c1cc(F)cc2c(=O)n(C)c(-c3cnc(C(F)(F)F)s3)cc12 [Example 508]
 |  |  |  | > 15 µM | > 15 µM | 2 to 15 µM | > 15 µM | COC1(C)CCN(c2cc3c(C(C)Nc4ccccc4C(=O)O)cc(C)cc3c(=O)n2C)CC1 (single isomer, unassigned) [Example 154]
0.001 to 0.5 µM | > 15 µM | 0.5 to 2 µM | > 15 µM |  |  |  |  | C[C@@H](Nc1cccc(F)c1C(=O)O)c1cc(F)cc2c(=O)n(C)c(C3C[C@@H]3C(F)(F)F)cc12 (single isomer, unassigned) [Example 427]
 |  |  |  | 0.001 to 0.5 µM | > 15 µM | 0.001 to 0.5 µM | 2 to 15 µM | Cc1cc(C(C)Nc2ccccc2C(=O)O)c2cc(N3CCC4(CCN(CC(F)(F)F)CC4)CC3)n(C)c(=O)c2c1 (stereo not drawn) [Example 91]
0.001 to 0.5 µM | > 15 µM | 0.001 to 0.5 µM | > 15 µM |  |  |  |  | Cc1cc([C@@H](C)Nc2ccccc2C(=O)O)c2cc(N3CCN(OC(C)C)CC3)n(C)c(=O)c2c1 [Example 250]
 |  |  |  | 0.001 to 0.5 µM | 2 to 15 µM | 0.001 to 0.5 µM | > 15 µM | Cc1cc([C@@H](C)Nc2ccccc2C(=O)O)c2cc(N3CCN(CC(F)(F)C4CC4)CC3)n(C)c(=O)c2c1 [Example 244]
0.001 to 0.5 µM | 2 to 15 µM | 0.001 to 0.5 µM | 2 to 15 µM |  |  |  |  | Cc1cnc(N2CCN(c3cc4c([C@@H](C)Nc5ccccc5C(=O)O)cc(F)cc4c(=O)n3C)CC2)c(C)n1 [Example 492]
0.5 to 2 µM | > 15 µM | 0.5 to 2 µM | > 15 µM |  |  |  |  | C[C@@H](Nc1cccc(F)c1C(=O)O)c1cc(F)cc2c(=O)n(C)c(-c3cc(F)c4nn(C)cc4c3)cc12 [Example 484]
0.001 to 0.5 µM | 2 to 15 µM | 0.001 to 0.5 µM | 2 to 15 µM |  |  |  |  | Cc1ccc(N2CCN(c3cc4c([C@@H](C)Nc5cccc(F)c5C(=O)O)cc(F)cc4c(=O)n3C)CC2)cn1 [Example 362]
